Reference: ChEMBL document CHEMBL1201862, “PubChem BioAssay data set” (2004)
Activity calls are given as the source filed them.

Assays:
[1] = target: T1, Intestinal-type alkaline phosphatase (Mus musculus, UniProt P24822); test: mouse intestinal alkaline phosphatase activators, dose response, biochemical, luminescence, uHTS hits (AID 488783); assay type: functional
[2] = target: T2, Histone-lysine N-methyltransferase NSD2 (Homo sapiens, UniProt O96028); assay type: biochemical
T2 sequence (O96028 whole entry): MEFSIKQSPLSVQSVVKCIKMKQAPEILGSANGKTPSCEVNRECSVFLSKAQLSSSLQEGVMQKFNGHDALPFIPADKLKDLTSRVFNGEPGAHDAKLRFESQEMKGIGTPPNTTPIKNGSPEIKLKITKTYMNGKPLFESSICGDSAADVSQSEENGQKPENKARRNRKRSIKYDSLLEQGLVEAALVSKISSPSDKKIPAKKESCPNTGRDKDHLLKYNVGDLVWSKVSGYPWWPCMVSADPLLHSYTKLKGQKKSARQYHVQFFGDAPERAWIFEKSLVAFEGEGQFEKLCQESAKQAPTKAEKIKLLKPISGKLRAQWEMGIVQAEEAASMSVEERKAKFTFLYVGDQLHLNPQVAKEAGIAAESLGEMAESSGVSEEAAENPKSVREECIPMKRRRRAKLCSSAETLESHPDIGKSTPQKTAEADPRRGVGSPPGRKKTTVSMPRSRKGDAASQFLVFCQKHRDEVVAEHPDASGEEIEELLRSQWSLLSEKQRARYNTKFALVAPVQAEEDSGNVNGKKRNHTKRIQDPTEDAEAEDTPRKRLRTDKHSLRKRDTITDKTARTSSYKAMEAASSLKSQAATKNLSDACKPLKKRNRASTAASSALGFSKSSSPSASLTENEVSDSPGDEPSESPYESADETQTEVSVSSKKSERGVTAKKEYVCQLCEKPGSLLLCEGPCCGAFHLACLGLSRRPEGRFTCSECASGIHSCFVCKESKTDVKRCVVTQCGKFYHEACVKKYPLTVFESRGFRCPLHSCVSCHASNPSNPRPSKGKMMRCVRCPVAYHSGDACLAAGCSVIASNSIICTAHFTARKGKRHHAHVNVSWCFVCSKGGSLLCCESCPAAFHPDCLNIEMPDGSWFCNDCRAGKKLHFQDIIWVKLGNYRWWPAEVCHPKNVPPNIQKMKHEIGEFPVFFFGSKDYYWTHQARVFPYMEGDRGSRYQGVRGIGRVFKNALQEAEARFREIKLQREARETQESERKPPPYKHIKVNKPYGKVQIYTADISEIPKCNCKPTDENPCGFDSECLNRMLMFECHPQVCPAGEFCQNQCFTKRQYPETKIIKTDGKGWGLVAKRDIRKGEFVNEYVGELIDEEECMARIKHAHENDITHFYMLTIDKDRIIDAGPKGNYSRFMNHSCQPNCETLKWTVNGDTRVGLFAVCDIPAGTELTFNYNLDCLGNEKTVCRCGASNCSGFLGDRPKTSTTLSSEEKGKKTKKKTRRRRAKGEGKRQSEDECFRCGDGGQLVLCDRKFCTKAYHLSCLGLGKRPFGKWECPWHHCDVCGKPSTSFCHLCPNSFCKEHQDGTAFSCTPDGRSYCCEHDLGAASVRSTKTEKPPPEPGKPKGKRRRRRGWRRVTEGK

[3] = target: Intestinal-type alkaline phosphatase (Homo sapiens, UniProt P09923); test: activation of human intestinal alkaline phosphatase – biochemical, dose response (AID 488873); assay type: functional
[4] = target: Large T antigen (Simian virus 40, UniProt P03070); assay type: functional, Betapolyomavirus macacae;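 also: Confirmatory-stage PubChem screen for compounds that inhibit SV40 T antigen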
[5] = target: T3, Alkaline phosphatase, tissue-nonspecific isozyme (Homo sapiens, UniProt P05186); test: activation of tissue-nonspecific alkaline phosphatase – biochemical, TNAP isozyme, mouse IAP uHTS hits, selectivity assay for mouse IAP activator project, dose response (AID 488880); assay type: functional
T3 sequence (P05186 whole entry): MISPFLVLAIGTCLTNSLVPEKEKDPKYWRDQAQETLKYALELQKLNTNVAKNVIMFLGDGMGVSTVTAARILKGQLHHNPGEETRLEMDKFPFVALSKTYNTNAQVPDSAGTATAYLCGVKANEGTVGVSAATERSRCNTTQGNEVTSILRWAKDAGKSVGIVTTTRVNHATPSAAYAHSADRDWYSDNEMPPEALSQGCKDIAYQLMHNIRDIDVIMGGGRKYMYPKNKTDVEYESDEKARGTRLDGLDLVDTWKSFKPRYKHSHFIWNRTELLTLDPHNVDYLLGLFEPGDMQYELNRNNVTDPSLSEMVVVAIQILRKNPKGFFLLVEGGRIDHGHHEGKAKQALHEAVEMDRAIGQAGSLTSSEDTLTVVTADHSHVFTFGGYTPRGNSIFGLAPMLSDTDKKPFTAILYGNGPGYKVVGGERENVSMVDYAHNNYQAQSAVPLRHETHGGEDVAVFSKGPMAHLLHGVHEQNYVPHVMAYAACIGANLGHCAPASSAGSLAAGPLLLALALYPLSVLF

[6] = target: T4, Mucolipin-3 (Homo sapiens, UniProt Q8TDD5); test: Fluorescence counterscreen assay for […] agonists: dose response cell-based high-throughput screening assay to identify agonists of the transient receptor potential channel ML3 (TRPML3). [Related pubchem assays: 1424, 1448 ]; assay type: functional
T4 sequence (Q8TDD5 whole entry): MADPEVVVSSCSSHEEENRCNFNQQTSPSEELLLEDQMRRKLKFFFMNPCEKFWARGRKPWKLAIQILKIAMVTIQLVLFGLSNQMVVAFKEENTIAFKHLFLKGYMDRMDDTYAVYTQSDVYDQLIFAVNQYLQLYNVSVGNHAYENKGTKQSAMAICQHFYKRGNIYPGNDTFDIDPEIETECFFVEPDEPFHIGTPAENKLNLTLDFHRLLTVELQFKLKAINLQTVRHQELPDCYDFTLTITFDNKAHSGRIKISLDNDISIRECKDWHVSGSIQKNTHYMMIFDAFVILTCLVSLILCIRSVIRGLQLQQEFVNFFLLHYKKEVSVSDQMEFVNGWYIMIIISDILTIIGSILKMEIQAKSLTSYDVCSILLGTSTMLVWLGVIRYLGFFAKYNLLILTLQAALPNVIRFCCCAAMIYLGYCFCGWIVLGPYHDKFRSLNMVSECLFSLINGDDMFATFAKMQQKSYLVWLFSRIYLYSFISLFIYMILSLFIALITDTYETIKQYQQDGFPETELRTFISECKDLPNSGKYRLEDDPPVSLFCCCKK

[7] = target: Ion channel NompC (Danio rerio, UniProt Q7T1G6); test: Dose response cell-based high-throughput screening assay for agonists of the transient receptor potential channel N1 (TRPN1). [Related pubchem assays (depositor defined):AID1424, AID1448]; assay type: functional
[8] = target: T1, Intestinal-type alkaline phosphatase; test: PubChem AID 488785; assay type: functional
[9] = target: T3, Alkaline phosphatase, tissue-nonspecific isozyme; test: TNAP enzyme inhibition by screening hits, dose response, selectivity assay for mouse IAP inhibitor project, biochemical, human TNAP, uHTS hits (AID 488906); assay type: functional
[10] = cells; assay type: functional, cell-based
[11] = cells; assay type: functional, cell-based; remark: listed apart in the source
[12] = target: Nonstructural protein 1 (Influenza A virus, UniProt Q194T2); assay type: functional, Influenza A virus (A/California/07/2009(H1N1))
Chain of Nonstructural protein 1 (Q194T2 whole entry): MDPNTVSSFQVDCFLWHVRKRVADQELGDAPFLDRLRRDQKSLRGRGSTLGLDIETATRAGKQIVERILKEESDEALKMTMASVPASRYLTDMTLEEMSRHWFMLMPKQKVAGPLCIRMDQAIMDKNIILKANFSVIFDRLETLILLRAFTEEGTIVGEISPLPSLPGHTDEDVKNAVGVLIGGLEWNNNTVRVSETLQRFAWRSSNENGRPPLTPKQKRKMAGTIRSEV

T1 sequence (P24822 whole entry): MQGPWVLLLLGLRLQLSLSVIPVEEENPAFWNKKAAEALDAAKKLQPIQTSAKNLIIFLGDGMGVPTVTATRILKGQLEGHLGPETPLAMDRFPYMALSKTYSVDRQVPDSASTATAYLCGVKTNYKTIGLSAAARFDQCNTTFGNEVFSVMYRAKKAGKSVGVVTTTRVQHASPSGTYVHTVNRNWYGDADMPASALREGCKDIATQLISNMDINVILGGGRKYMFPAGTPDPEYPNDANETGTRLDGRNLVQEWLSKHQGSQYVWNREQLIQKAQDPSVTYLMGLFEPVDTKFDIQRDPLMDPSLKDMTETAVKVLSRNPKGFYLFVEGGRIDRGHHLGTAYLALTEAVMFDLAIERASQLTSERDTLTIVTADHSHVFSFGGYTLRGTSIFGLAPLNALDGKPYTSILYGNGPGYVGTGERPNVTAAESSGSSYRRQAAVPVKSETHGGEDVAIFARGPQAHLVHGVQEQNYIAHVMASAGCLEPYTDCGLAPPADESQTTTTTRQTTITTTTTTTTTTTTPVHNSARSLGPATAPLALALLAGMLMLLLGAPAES
Chain of Intestinal-type alkaline phosphatase (Homo sapiens, UniProt P09923) (P09923 whole entry): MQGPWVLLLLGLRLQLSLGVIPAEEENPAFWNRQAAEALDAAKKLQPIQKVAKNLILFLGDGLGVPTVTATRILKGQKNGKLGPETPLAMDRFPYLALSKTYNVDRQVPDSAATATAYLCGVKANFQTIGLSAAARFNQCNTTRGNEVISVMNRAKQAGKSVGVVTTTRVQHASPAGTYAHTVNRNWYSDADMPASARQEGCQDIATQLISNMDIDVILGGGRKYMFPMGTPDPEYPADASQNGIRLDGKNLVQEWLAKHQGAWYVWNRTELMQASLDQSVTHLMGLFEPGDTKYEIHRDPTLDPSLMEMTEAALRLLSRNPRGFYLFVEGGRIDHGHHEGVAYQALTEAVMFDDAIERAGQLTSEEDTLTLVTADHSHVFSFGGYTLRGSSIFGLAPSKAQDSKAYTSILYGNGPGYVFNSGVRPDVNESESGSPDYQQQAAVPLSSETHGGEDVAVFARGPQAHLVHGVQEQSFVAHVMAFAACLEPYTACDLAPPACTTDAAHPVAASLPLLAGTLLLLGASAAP
Chain of Ion channel NompC (Q7T1G6 whole entry): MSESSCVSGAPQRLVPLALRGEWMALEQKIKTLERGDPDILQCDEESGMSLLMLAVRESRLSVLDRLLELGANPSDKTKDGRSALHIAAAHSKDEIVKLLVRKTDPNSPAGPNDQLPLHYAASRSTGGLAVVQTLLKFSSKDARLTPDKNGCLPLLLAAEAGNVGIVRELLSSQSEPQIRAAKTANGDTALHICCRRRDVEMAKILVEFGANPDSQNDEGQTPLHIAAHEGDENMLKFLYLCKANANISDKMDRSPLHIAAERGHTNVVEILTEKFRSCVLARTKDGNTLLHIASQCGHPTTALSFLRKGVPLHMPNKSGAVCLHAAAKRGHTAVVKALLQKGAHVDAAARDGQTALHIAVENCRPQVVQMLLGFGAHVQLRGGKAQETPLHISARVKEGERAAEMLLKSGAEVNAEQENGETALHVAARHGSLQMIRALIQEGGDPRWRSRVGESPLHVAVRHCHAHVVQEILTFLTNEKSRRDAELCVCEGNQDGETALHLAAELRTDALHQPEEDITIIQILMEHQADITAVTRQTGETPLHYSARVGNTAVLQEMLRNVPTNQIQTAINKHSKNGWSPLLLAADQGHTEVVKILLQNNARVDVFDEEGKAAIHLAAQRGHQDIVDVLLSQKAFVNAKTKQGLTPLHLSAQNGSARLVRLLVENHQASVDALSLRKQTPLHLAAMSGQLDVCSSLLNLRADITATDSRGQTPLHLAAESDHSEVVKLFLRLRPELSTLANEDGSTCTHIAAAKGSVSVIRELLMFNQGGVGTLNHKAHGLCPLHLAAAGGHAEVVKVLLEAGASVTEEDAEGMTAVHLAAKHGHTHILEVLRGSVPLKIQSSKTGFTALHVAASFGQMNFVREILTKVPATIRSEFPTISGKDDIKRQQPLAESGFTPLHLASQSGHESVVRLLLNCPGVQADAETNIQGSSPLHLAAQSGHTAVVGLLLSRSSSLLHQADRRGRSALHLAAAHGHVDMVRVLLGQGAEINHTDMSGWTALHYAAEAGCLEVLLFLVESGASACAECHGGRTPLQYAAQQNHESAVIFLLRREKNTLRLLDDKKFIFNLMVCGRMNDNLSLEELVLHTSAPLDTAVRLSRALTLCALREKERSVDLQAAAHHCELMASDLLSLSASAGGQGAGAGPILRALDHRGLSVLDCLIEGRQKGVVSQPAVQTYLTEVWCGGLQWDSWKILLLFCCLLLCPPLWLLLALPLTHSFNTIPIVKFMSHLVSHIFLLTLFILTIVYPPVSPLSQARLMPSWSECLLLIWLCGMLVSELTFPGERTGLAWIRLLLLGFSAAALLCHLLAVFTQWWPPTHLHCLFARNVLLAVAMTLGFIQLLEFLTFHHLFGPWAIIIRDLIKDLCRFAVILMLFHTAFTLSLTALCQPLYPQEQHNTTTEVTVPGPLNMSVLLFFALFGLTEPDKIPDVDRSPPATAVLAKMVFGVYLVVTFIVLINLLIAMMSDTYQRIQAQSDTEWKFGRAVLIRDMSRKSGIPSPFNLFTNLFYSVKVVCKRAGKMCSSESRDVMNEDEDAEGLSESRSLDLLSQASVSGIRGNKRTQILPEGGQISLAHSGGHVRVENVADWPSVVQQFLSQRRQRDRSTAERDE
Chain of Large T antigen (P03070 whole entry): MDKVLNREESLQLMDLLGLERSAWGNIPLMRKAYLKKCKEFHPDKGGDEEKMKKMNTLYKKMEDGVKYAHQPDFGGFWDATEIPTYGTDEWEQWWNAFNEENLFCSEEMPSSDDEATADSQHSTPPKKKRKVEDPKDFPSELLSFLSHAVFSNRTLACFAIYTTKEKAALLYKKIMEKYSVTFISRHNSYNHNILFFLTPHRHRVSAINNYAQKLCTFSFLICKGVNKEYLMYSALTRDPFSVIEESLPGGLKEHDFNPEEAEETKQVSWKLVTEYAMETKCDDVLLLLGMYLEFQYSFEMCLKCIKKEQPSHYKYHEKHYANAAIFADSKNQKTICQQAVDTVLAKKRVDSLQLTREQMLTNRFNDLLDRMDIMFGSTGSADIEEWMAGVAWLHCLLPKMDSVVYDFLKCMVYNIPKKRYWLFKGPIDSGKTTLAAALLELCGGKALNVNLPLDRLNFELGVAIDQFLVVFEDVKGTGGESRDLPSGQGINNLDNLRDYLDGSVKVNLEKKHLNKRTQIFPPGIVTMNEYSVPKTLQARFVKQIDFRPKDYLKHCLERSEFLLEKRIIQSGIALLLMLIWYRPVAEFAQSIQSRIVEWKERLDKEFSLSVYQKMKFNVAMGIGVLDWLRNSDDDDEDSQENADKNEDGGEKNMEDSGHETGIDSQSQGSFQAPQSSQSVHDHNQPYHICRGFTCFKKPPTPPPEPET

With O=C(CSc1nc2ccccc2o1)N/N=C/c1ccc(O)c(O)c1 the EC50 [1] was 69.9 µM (active), the AC50 [2] was 742 nM (active) and the EC50 [3] was 63 µM (active). The IC50 [4] was 6.69 µM (active) and the EC50 [5] was 61.7 µM (active).

In the case of O=C(O)c1cc2c(cc1Br)OCCCO2, the EC50 [6] is reported as > 29.9 µM (not active) and the EC50 [7] is reported as > 29.9 µM (inactive).

With COc1cccc(C(C)NC(=O)Nc2cccc(C(F)(F)F)c2)c1 (stereo not given) the IC50 [8] was 3.21 µM (active), the EC50 [3] was > 100 µM (inactive) and the IC50 [9] was > 100 µM (inactive).

With O=C(N/N=C/c1cc(Cl)cc(Cl)c1O)c1ccncc1 the EC50 [6] was 14.2 µM (not active), the EC50 [10] was 259 µM (active) and the EC50 [11] was > 350 µM (not active). The EC50 [7] was 6.49 µM (active) and the IC50 [12] was 5.57 µM (active).
